This is an account of results in ChEMBL document CHEMBL1140850, “Structure-activity relationships of lipopolysaccharide sequestration in guanylhydrazone-bearing lipopolyamines” (Bioorg Med Chem, 2009).

The test system of one data set is Blood. Description: Inhibition of Escherichia coli 0111:B4 LPS-induced proinflammatory cytokine production in human whole blood after 4 hrs. Format: functional, tissue-based.
For data set [1], the system named is Mus musculus. Description: Toxicity in Escherichia coli 0111:B4 LPS-induced lethality in CF1 mouse at 200 mg/kg, ip after 24 hrs. It counts as organism-based. Also on record: dose 200 mg/kg, route intraperitoneal. The note with it: in vivo.
The subject of a further data set is J774.A1. Description: Inhibition of LPS-induced NO production in mouse J774A1 cells by Griess assay. It counts as functional, cell-based. In general terms: Griess reagent forms a coloured azo dye with nitrite.
Data set [2] relates to Mus musculus. As to the kind of experiment: Toxicity in Escherichia coli 0111:B4 LPS-induced lethality in ip dosed CF1 mouse after 24 hrs. The settings on record: in vivo. It counts as organism-based.
A further data set has as its system HEK293. As to the kind of experiment: Inhibition of LPS-induced NF-kappaB nuclear transactivation in HEK293 cells coexpressed with TLR4 assessed as alkaline phosphatase activity by spectrophotometry. Format: cell-based. The note with it: Homo sapiens.

Activity calls are given as the source filed them. No cut-off for these calls is given here.

For the molecule `CCCCCCCCCCCCCCCCNC(=N)N/N=C/CCNCCCNCCCCNCCCN.O=C(O)C(F)(F)F`, the Activity entry with Blood was “Dose-dependent effect”; in the data set on Mus musculus [1], “Non-toxic”; with Mus musculus [2], “Dose-dependent effect”. Besides, the result in the data set on J774.A1 was Active. For the same molecule, the LD100 in the data set with Mus musculus [2] was 100 ng.

Take `CCCCCCCCCCCCCCCCNCCCNCCCCNCCCNCC/C=N/NC(=N)N`: the result in the data set on J774.A1 and in the data set on HEK293 was Active.
